PubChem BioAssay AID248 (DTP/NCI, 2004)
“And” between values parts separate entries of the source, which are not always exact repeats. Equal entries are not always repeated. Toxic doses and inconclusive results are not listed. Cut-off read from the data, not from the text of the source: active = T/C of 150% or more; inactive = T/C below 125%.

System: L1210 leukemia ip in BDF1 mice, survival T/C
Assay: NCI In Vivo Anticancer Drug Screen. Data for tumor model L1210 Leukemia (intraperitoneal) in B6D2F1 (BDF1) mice
Conditions: endpoint: mean survival time, higher = longer survival
Outline: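 Antitumor effect is assessed in tumor-bearing animals. Survival in the compound arm is compared with a vehicle-dosed control arm and expressed as their quotient.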

[1] = dose: 100.0 mg/kg/injection, schedule: Q01DX009 (ip), vehicle: saline
[2] = dose: 100.0 mg/kg/injection, schedule: Q01DX009 (ip), vehicle: Klucel (hydroxypropylcellulose) (HPC)
[3] = dose: 200.0 mg/kg/injection, schedule: Q01DX009 (ip), vehicle: Klucel (hydroxypropylcellulose) (HPC)
[4] = dose: 400.0 mg/kg/injection, schedule: Q01DX009 (ip), vehicle: Klucel (hydroxypropylcellulose) (HPC)
[5] = dose: 75.0 mg/kg/injection, schedule: Q01DX001 (ip), vehicle: saline
[6] = dose: 150.0 mg/kg/injection, schedule: Q01DX001 (ip), vehicle: saline
[7] = dose: 100.0 mg/kg/injection, schedule: Q04DX003 (ip), vehicle: Klucel (hydroxypropylcellulose) (HPC)
[8] = dose: 200.0 mg/kg/injection, schedule: Q04DX003 (ip), vehicle: Klucel (hydroxypropylcellulose) (HPC)
[9] = dose: 400.0 mg/kg/injection, schedule: Q04DX003 (ip), vehicle: Klucel (hydroxypropylcellulose) (HPC)
[10] = dose: 100.0 mg/kg/injection, schedule: Q04DX003 (ip), vehicle: saline sonified
[11] = dose: 200.0 mg/kg/injection, schedule: Q04DX003 (ip), vehicle: saline sonified
[12] = dose: 400.0 mg/kg/injection, schedule: Q04DX003 (ip), vehicle: saline sonified
[13] = dose: 100.0 mg/kg/injection, schedule: Q04DX003 (ip), vehicle: saline with Tween-80
[14] = dose: 200.0 mg/kg/injection, schedule: Q04DX003 (ip), vehicle: saline with Tween-80
[15] = dose: 400.0 mg/kg/injection, schedule: Q04DX003 (ip), vehicle: saline with Tween-80
[16] = dose: 100.0 mg/kg/injection, schedule: Q01DX001 (ip), vehicle: saline
[17] = dose: 100.0 mg/kg/injection, schedule: Q04DX003 (ip), vehicle: saline
[18] = dose: 200.0 mg/kg/injection, schedule: Q01DX001 (ip), vehicle: saline
[19] = dose: 200.0 mg/kg/injection, schedule: Q04DX003 (ip), vehicle: saline
[20] = dose: 400.0 mg/kg/injection, schedule: Q01DX001 (ip), vehicle: saline
[21] = dose: 25.0 mg/kg/injection, schedule: Q01DX009 (ip), vehicle: Klucel (hydroxypropylcellulose) (HPC)
[22] = dose: 100.0 mg/kg/injection, schedule: Q01DX009 (ip), vehicle: saline with Tween-80
[23] = dose: 200.0 mg/kg/injection, schedule: Q01DX009 (ip), vehicle: saline with Tween-80
[24] = dose: 400.0 mg/kg/injection, schedule: Q01DX009 (ip), vehicle: saline with Tween-80
[25] = dose: 100.0 mg/kg/injection, schedule: Q01DX009 (ip), vehicle: saline sonified
[26] = dose: 200.0 mg/kg/injection, schedule: Q01DX009 (ip), vehicle: saline sonified

Measured: T/C

Clc1ccc(Cl)c(-c2csc(-c3cccnc3)n2)c1
inactive: [1] 100 % of control | dose: 200.0 mg/kg/injection, schedule: Q01DX009 (ip), vehicle: saline 100 % of control | dose: 400.0 mg/kg/injection, schedule: Q01DX009 (ip), vehicle: saline 89 % of control

Nc1nc(N)c(CCCCc2ccc([N+](=O)[O-])cc2)c(N)n1
inactive: [2] 100 % of control | [3] 102 % of control | [4] 94 % of control

S=P(N1CCCCC1)(N1CCCCC1)N1CCCCC1
inactive: [2] 100 % of control | [3] 103 % of control | [4] 100 % of control

CCOC(=O)c1ccc2ccccc2n1
inactive: [5] 109 % of control | [6] 96 % of control

CN(C)c1ccc(/C=C2\CCC/C(=C\c3ccc(N(C)C)cc3)C2=O)cc1
inactive: [7] 96 % of control | [8] 96 % of control | [9] 92 % of control

CCCc1nc2ccccc2c(=O)n1/N=C/c1ccsc1
inactive: [10] 101 % of control | [11] 94 % of control | [12] 94 % of control

CCOC(=O)c1cnc(SC)nc1NCc1ccccc1C
inactive: [13] 94 % of control | [14] 94 % of control | [15] 92 % of control

O=C1CCC2=C(CCCCCCCCCC2)N1c1ccccc1
inactive: [13] 105 % of control | [14] 105 % of control | [15] 94 % of control

CCN(CC)c1ccc(-c2nc3ccccc3s2)cc1
inactive: dose: 50.0 mg/kg/injection, schedule: Q04DX003 (ip), vehicle: Klucel (hydroxypropylcellulose) (HPC) 99 % of control | [7] 94 % of control | [8] 91 % of control

CN(C)/C=C(\C#N)C=O
inactive: [5] 103 % of control | [6] 101 % of control

O=C(Cc1ccccn1)c1ccccn1
inactive: [16] 98 % of control | [17] 100 % of control | [18] 117 % of control | [19] 102 % of control | [20] 119 % of control | dose: 400.0 mg/kg/injection, schedule: Q04DX003 (ip), vehicle: saline 98 % of control

COC(=O)c1ccccc1N=Nc1ccc(O)c(C(C)C)c1
inactive: [21] 98 % of control | dose: 50.0 mg/kg/injection, schedule: Q01DX009 (ip), vehicle: Klucel (hydroxypropylcellulose) (HPC) 98 % of control | [7] 97 % of control | [8] 100 % of control | [9] 98 % of control

Cc1cc(CSc2ssc(=S)c2-c2ccccc2)c(CSc2ssc(=S)c2-c2ccccc2)cc1C
inactive: [22] 94 % of control | [13] 112 % of control | [23] 92 % of control | [14] 106 % of control | [24] 96 % of control | [15] 95 % of control

Cc1ccc(S(=O)(=O)NC(=O)Oc2c(C(C)C)cccc2C(C)C)cc1
inactive: dose: 50.0 mg/kg/injection, schedule: Q04DX003 (ip), vehicle: saline 110 % of control | [17] 110 % of control | [19] 102 % of control

NSc1ccccc1[N+](=O)[O-]
inactive: [7] 100 % of control | [8] 105 % of control | [9] 100 % of control

CCOC(=O)CCC(C)(c1ccc(O)cc1)c1ccc(O)cc1
inactive: dose: 50.0 mg/kg/injection, schedule: Q01DX009 (ip), vehicle: saline with Tween-80 98 % of control | dose: 50.0 mg/kg/injection, schedule: Q04DX003 (ip), vehicle: saline with Tween-80 93 % of control | [22] 96 % of control | [13] 93 % of control | [23] 96 % of control | [14] 102 % of control

NC(=O)c1ccc[n+](CC(=O)Nc2ccccc2)c1
inactive: [13] 101 % of control | [14] 97 % of control | [15] 95 % of control

Nc1nc(CNc2ccc(Cl)cc2)nc(Nc2ccccc2)n1
inactive: [13] 93 % of control | [14] 89 % of control | [15] 89 % of control

CCCSC(CCc1cnc(N)nc1C)SCCC
inactive: dose: 400.0 mg/kg/injection, schedule: Q04DX002 (ip), vehicle: Klucel (hydroxypropylcellulose) (HPC) 94 % of control

CC1(C)C2CCC1(CBr)C(=O)C2 (stereo not given)
inactive: dose: 200.0 mg/kg/injection, schedule: Q04DX002 (ip), vehicle: Klucel (hydroxypropylcellulose) (HPC) 100 % of control

CC(C(=O)O)C1(O)CCCCC1 (stereo not given)
inactive: dose: 5.0 mg/kg/injection, schedule: Q04DX003 (ip), vehicle: saline with Tween-80 96 % of control | dose: 10.0 mg/kg/injection, schedule: Q04DX003 (ip), vehicle: saline with Tween-80 89 % of control | dose: 20.0 mg/kg/injection, schedule: Q04DX003 (ip), vehicle: saline with Tween-80 87 % of control

CN(C)NCCC#N
inactive: dose: 66.0 mg/kg/injection, schedule: Q01DX009 (ip), vehicle: saline 118 % of control | dose: 75.0 mg/kg/injection, schedule: Q01DX009 (ip), vehicle: saline 116 % of control | [25] 98 % of control | [1] 116 % of control | [26] 111 % of control

NC(CCl)=NCC1CCCCCCC1
inactive: [21] 103 % of control | dose: 25.0 mg/kg/injection, schedule: Q04DX002 (ip), vehicle: Klucel (hydroxypropylcellulose) (HPC) 100 % of control | dose: 50.0 mg/kg/injection, schedule: Q04DX002 (ip), vehicle: Klucel (hydroxypropylcellulose) (HPC) 107 % of control | dose: 100.0 mg/kg/injection, schedule: Q04DX002 (ip), vehicle: Klucel (hydroxypropylcellulose) (HPC) 101 % of control and 89 % of control

C=CCc1cn(C2OC(COC(=O)c3ccccc3)C(OC(=O)c3ccccc3)C2OC(=O)c2ccccc2)c(=S)[nH]c1=O (stereo not given)
inactive: dose: 100.0 mg/kg/injection, schedule: Q01DX005 (ip), vehicle: saline 95 % of control | dose: 200.0 mg/kg/injection, schedule: Q01DX005 (ip), vehicle: saline 98 % of control

O=C(COC(=O)c1ccccc1)NCCCCc1ccccc1
inactive: dose: 100.0 mg/kg/injection, schedule: Q01DX001 (ip), vehicle: saline with Tween-80 100 % of control | [22] 105 % of control and 91 % of control | dose: 100.0 mg/kg/injection, schedule: Q04DX002 (ip), vehicle: saline with Tween-80 96 % of control | [13] 94 % of control | dose: 200.0 mg/kg/injection, schedule: Q01DX001 (ip), vehicle: saline with Tween-80 89 % of control | [23] 95 % of control and 100 % of control | dose: 200.0 mg/kg/injection, schedule: Q04DX002 (ip), vehicle: saline with Tween-80 99 % of control and 91 % of control | [14] 92 % of control | [24] 94 % of control and 95 % of control | dose: 400.0 mg/kg/injection, schedule: Q04DX002 (ip), vehicle: saline with Tween-80 93 % of control and 86 % of control

CCOC(=O)CCC(C)(C#N)C(C#N)C(=O)OCC (stereo not given)
inactive: [25] 97 % of control | [10] 108 % of control | [26] 110 % of control | [11] 97 % of control | dose: 400.0 mg/kg/injection, schedule: Q01DX009 (ip), vehicle: saline sonified 100 % of control | [12] 98 % of control

CCOC(=O)C[N+]1(C)C2CCC1CC(O)C2 (stereo not given)
inactive: [16] 94 % of control | [18] 90 % of control | [20] 94 % of control

c1ccc2[nH]c(-c3cscn3)nc2c1
inactive: dose: 75.0 mg/kg/injection, schedule: Q04DX003 (ip), vehicle: saline 103 % of control | dose: 150.0 mg/kg/injection, schedule: Q04DX003 (ip), vehicle: saline 103 % of control | dose: 300.0 mg/kg/injection, schedule: Q04DX003 (ip), vehicle: saline 106 % of control

O=C(O)C(O)C(F)(F)F (stereo not given)
inactive: dose: 31.0 mg/kg/injection, schedule: Q01DX Z (ip), vehicle: methylcellulose (MC) 102 % of control | dose: 62.5 mg/kg/injection, schedule: Q01DX Z (ip), vehicle: methylcellulose (MC) 96 % of control | dose: 125.0 mg/kg/injection, schedule: Q01DX Z (ip), vehicle: methylcellulose (MC) 100 % of control | dose: 250.0 mg/kg/injection, schedule: Q01DX Z (ip), vehicle: methylcellulose (MC) 97 % of control
